Measured values published in patent US20230021365A1, “COMPOSITION COMPRISING P53-ACTIVATING PEPTIDE” (SUPADELIXIR INC., priority 2019, published 2023).

These substances were tested on interaction between p53 and POLII (assay: in situ PLA (proximity ligation assay) of physical binding between p53 and RNA Polymerase II (POLII) in HaCaT cells). Conditions: summary statement in the description.
Assay type: cell-based, human
Method: After treating cells with the peptides of the present invention, the effects thereof on the physical binding between p53 and RNA Polymerase II (POLII) were evaluated through an in situ PLA (proximity ligation assay) method. HaCaT cells (human keratinocytes, CLS) were added at 4.5×10^4 cells per well, along with a DMEM containing 10% fetal bovine serum, to each well of a 24-well microplate and then cultured at 37° C. in a 5% CO2 incubator for 24 hours. The peptide solutions of Example 2 were added thereto so that the concentration of each peptide in the medium was 20 μM, followed by incubating for 1 hour under the same condition. […] The cells of each well were washed with PBS, fixed by treating with 2% formaldehyde for 15 minutes, and then treated with 0.1% TritonX-100 for 5 minutes to increase antibody permeability into the cells. Anti-p53 polyclonal antibody (Abcam, UK) and anti-POLII polyclonal antibody (Santa Cruz, Calif., USA) were added thereto. After the PLA probe was added thereto using the in situ PLA kit (Sigma-Aldrich), hybridization, ligation, amplification and mounting steps were carried out according to the manufacturer's protocol. Each physical interaction between p53 and POLII was quantified by measuring the luminescence signals (PLA signals) detected in each cell with a confocal laser microscope (Olympus fluoview FW1000; Olympus, Tokyo, Japan).

| Substance | activity in decreasing the interaction between p53 and MDM2 and thus increasing the interaction between p53 and POLII |
| --- | --- |
| Leu-Ser-Asp (LSD) [Pep 2] | particularly excellent activity |
| Leu-Arg-Asp (LRD) [Pep 6] | particularly excellent activity |
| Leu-Thr-Asp (LTD) [Pep 18] | particularly excellent activity |
| Leu-Lys-Asp (LKD) [Pep 7] | particularly excellent activity |
| Leu-Ala-Asp (LAD) [Pep 4] | particularly excellent activity |
| Leu-Gly-Asp (LGD) [Pep 3] | particularly excellent activity |
| Leu-Tyr-Asp (LYD) [Pep 9] | particularly excellent activity |
